Reference: patent publication US6991937B2, “Urine cystine quantitation and supersaturation assay” (Litholink Corporation, priority 2001, dated 2006)
Marks after values point to notes of the source that are not given here.

What was measured:
[1] = Dissolution of solid phase cystine by cystine binding drugs in normal urine; set-up: species or system human; conditions: for molar proportion of cystine dissolved per drug, urine: normal urine; for Regression slope of cystine uptake on drug molarity, URINE: ten normal urine samples, 48 hours, 37° C.
Protocol: (§1) Using the same incubation buffer and cystine-dissolving agent systems as for the initial solid phase dissolution assay given in Example 1, increasing amounts of D-penicillamine, tiopronin, or captopril were added to 25 ml aliquots of the incubation buffer. A fixed amount of cystine was added; for tiopronin and D-penicillamine, about 40 mg, and for captopril about 20 mg. […] Incubation was carried out as in Example 1. After 48 hours, the pellet and supernatant were separated by centrifugation, the pellet was dissolved in 25 ml of cystine-dissolving agent, an alkalinizing buffer of 0.1 M sodium carbonate, pH 9.9, (Sigma Aldrich Corp, Catalog # S-7795), to form a final cystine solution. Cystine concentration was determined both in the supernatant and the final cystine solution according to the procedure given in Example 3. This same protocol was repeated using the ten normal urine samples employed in the basic solid phase dissolution study described in Example 1.
(§2) Cystine concentrations in either the incubation buffer or normal urine after removal of the residual solid phase cystine, or the final cystine solution after the dissolution of the solid phase cystine in a cystine-dissolving agent as shown in Example 1 and 2 were measured using the modified cyanide-nitroprusside method for quantifying urinary cystine concentration as reported by Nakagawa and Coe (Nakagawa, Y. and Coe, F. 1999. Clin Chim Acta 289:57–68). A 100 microliter aliquot was mixed with 400 microliters of water and 1 milliliter of 0.01 M sodium phosphate buffer containing 0.15 mol/liter NaCl, pH 7.3 (PBS). After adding 300 microliters of 10% NaCN aqueous solution (w/v), the sample was incubated for twenty minutes at room temperature. Color was developed by adding 100 microliters of 20% sodium nitroprusside aqueous solution (w/v). Within 20 seconds of the sodium nitroprusside addition, color intensity was then measured at 521 nm using a Beckman spectrophotometer (model DU 640), and cystine concentration was calculated by comparison to a standard curve which was prepared with each assay.
(§3) Routine means and t tests and linear regression analysis used standard statistical software (Systat, SPSS Corp., Chicago, Ill.). Differences in slopes of uptake with drugs were assessed by multivariate analysis in which cystine uptake was the dependent variable; drug molarity, the independent variable; either buffer vs urine or drug type, the categorical variable; and probability of homogeneity of slopes between the groups, defined by the categorical variable tested. Simple regression analysis was used to obtain the actual values of the slopes.

[2] = Dissolution of solid phase cystine by cystine binding drugs in incubation buffer; conditions: for Regression slope of cystine uptake on drug molarity, BUFFER: incubation buffer, 48 hours, 37° C.
Protocol: as §1, §2, §3

[3] = general statement; cited from earlier work

Compound | molar proportion of cystine dissolved per drug, urine [1] [mole/mole] | Regression slope of cystine uptake on drug molarity, URINE [1] | molar proportion of cystine dissolved per drug, buffer [2] [mole/mole] | Regression slope of cystine uptake on drug molarity, BUFFER [2] | solubility of cystine in average normal urine [3] [µg/mL]
CC(C)(S)[C@@H](N)C(=O)O [D-penicillamine] | 0.21±0.008 | 0.21 ± 0.01 | 0.24±0.01 | 0.25 ± 0.01 | 
N[C@@H](CSSC[C@H](N)C(=O)O)C(=O)O [cystine] |  |  |  |  | 200 to 400
CC(S)C(=O)NCC(=O)O (stereo not shown) [tiopronin] | 0.36±0.01 | 0.36 ± 0.01 | 0.41±0.02 | 0.41 ± 0.02# | 
C[C@H](CS)C(=O)N1CCC[C@H]1C(=O)O [captopril] | 0.35±0.01 | 0.35 ± 0.01# | 0.36±0.04 | 0.36 ± 0.04# | 
